{
  "source": "patent US7022315B2",
  "about": "“Administration of a thiol-based chemoprotectant compound” (Oregon Health & Science University, priority 2000, dated 2006)",
  "key": {"rats": {"tested_on": "rats", "assay": "Blood counts after chemotherapy with or without NAC by left carotid aortic infusion (Example 1)", "type": "in vivo, rat", "text": "The rats were set up for drug administration by pushing a catheter forward past the junction of the external and internal carotid arteries (toward the aorta), and temporarily sealing off the internal carotid for good measure so nothing goes to the brain (left carotid aortic infusion method). In patients where entry is via the femoral artery and the catheter is threaded through the aorta to get to the brain in the first place, one would just pull the catheter back to the aorta to do the NAC infusion.\nRats were treated with carboplatin (200 mg/m^2), melphalan (10 mg/m^2) and etoposide phosphate (100 mg/m^2). In the NAC animals, NAC was infused with the left carotid aortic infusion method immediately after the chemotherapeutic agents, at concentrations ranging from 400–1200 mg/M^2. White blood cells (wbc) and platelets (plt) were counted at baseline before the experiment and at 6 and 9–11 days after treatment with the chemotherapeutic agents. […] Counts are in 1000s per μl blood. […] The lack of white blood cell effect was not repeated as there were significant effects shown below.\nThe data in table 2 show additional results. […] White blood cells (wbc) and platelets (plt) were counted at baseline before the experiment and at 6 and 9 days after treatment with the chemotherapeutic agents."}, "B.5 LX-1 cells [1]": {"tested_on": "B.5 LX-1 cells", "assay": "In situ TUNEL staining for DNA fragmentation", "type": "cell-based", "conditions": "melphalan 10 μg/ml, N-acetylcysteine 1000 μg/ml", "protocol": "(§1) FIGS. 7A and 7B show the effect of cytoenhancement and chemoprotection on apoptosis. […] Apoptosis was assessed in cultured LX-1 SCLC cells pretreated for 18 hours with or without 100 μM BSO. The experimental conditions were no addition (open bars), melphalan (10 μg/ml, striped bars) or melphalan (10 μg/ml) plus N-acetylcysteine (1000 μg/ml) (cross hatched bars) for 20 h prior to harvest. Caspase-2 activity is expressed as percentage activity in untreated control samples (mean±standard deviation, n=3). TUNEL staining is expressed as the percentage of cells showing positive staining.\n(§2) Apoptosis was evaluated by measuring Caspase-2 enzymatic activity and by in situ TUNEL staining. […] The increase in caspase activity was variable between experiments and ranged from 50–100% at 7–8 h to 250–600% at 20–24 h after treatment with melphalan. […] In the experiment shown in FIG. 7B, TUNEL staining after melphalan treatment was positive in 29 of 3643 cells, compared to 7 of 4395 cells in the untreated control, and BSO treatment prior to melphalan increased the positive staining to 800 of 1699 cells. […] In both assays, activity was maximal with low doses of melphalan, or with a 1 hour pulse treatment with the doses used in the cytotoxicity assays."}, "[2]": {"tested_on": "Caspase-2 activity in B.5 LX-1 cells", "assay": "Caspase-2 enzymatic activity (apoptosis)", "type": "cell-based", "protocol": "as §1, §2\nSamples of the cells used in the caspase and TUNEL assays were also evaluated for membrane permeability by trypan blue exclusion."}, "[3]": {"tested_on": "patients with moderate renal insufficiency", "conditions": "approximately 1200 mg per day orally, day before and day of contrast agent; computed tomography; cited from earlier work"}, "B.5 LX-1 cells [4]": {"tested_on": "B.5 LX-1 cells", "assay": "cells", "protocol": "FIGS. 4A and 4B show cytoenhancement and chemoprotection. […] Cytotoxicity was assessed in cultured LX-1 SCLC cells, 1×10^4 cells per well in 96 well plates, using the WST colorometric assay. BSO cytoenhancement consisted of preincubation at 100 μM BSO for 18 hours. The chemoprotective agent was added immediately after chemotherapy. The experimental conditions were dose/responses for chemotherapy (carboplatin or etoposide phosphate) alone (m), BSO cytoenhancement ( ? ), N-acetylcysteine rescue, (1000 μg/ml N-acetylcysteine, n), or BSO cytoenhancement and N-acetylcysteine rescue (u). Data are expressed as the percentage of live cells compared to untreated control samples without chemotherapy and each point represents the mean±standard deviation of 4 wells.\nThe effects of BSO cytoenhancement and thiol chemoprotection on the dose/response relationships for cytotoxicity of the alkylating chemotherapeutics were evaluated in the B.5 LX-1 cells. BSO cytoenhancement consisted of preincubation with 100 μM BSO for about 18–24 hours prior to addition of chemotherapy, and rescue consisted of 1000–2000 μg/ml of thiol chemoprotectant added immediately after chemotherapy.\nCytoenhancement and chemoprotection against non-alkylating chemotherapeutic agents was also evaluated.\nHalf-maximal cytotoxic concentrations (EC50) are expressed as μg/ml. Each EC50 measurement comprised 6 concentrations with 4 wells per concentration, and each dose response was performed in triplicate for each chemotherapeutic agent. Data are reported as the mean±pooled standard deviation for three independent experiments. P values are shown for the reduction in EC50 by BSO treatment (*=P<0.05, **=P<0.01, ***=P<0.001)."}, "rat": {"tested_on": "rat", "protocol": "FIG. 9 represents tests showing the effect of NAC route of administration on mortality+/−BSO. A Kaplan-Meier product limit analysis was used to evaluate the mortality due to chemoprotection with NAC. Rats were treated with or without BSO (10 mg/kg i.p. b.i.d.×3, black bars) prior to treatment with chemotherapy (Carboplatin 200 mg/m2, etoposide phosphate 100 mg/m2, melphalan 10 mg/m2). Chemoprotection consisted of NAC (1200 mg/m2) or NAC (1000 mg/m2) plus STS (8 g/m2) given either i.v. (n=17 BBSO, n=8+BSO) or by aortic infusion (n=19 BBSO, n=28+BSO).\nA dose escalation of NAC was performed in the rat.\nThe toxicity of NAC was determined when infused for bone marrow protection."}, "LX-1 SCLC cells": {"tested_on": "LX-1 SCLC cells", "assay": "cells", "conditions": "for EC50: average ± pooled sd of two experiments", "protocol": "Cytotoxicity was assessed in cultured LX-1 SCLC cells, 1×10^4 cells per well in 96 well plates, using the WST colorometric assay. […] Chemoprotectant was added at the indicated concentration of N-acetylcysteine shown in FIG. 3A or D-methionine shown in FIG. 3B either alone (n) or immediately following chemotherapy. Data are expressed as the percentage of live cells compared to untreated control samples (without chemotherapy) and each point represents the mean±standard deviation of 4 wells.\nThe dose/response for rescue from chemotherapy cytotoxicity was evaluated for four different small molecular weight sulfur containing chemoprotectants.\nChemotherapy agents were fixed at the 90% lethal dose for each agent. Each EC50 measurement comprised 6 concentrations with 4 wells per concentration, and each dose response was performed twice for each protectant. EC50 concentrations, in μg/ml are reported as the average±pooled standard deviation for two independent experiments."}},
  "note": "Where two headings read alike, the source gives them in different places.",
  "data": [
    {"smiles": "CC(=O)N[C@@H](CS)C(=O)O", "note": "[NAC, N-acetylcysteine]", "values": [
      {"measurement": "platelet recovery from chemotherapy", "setting": "rats", "result": "recovered from chemotherapy faster"},
      {"measurement": "effect on melphalan-induced TUNEL staining", "setting": "B.5 LX-1 cells [1]", "result": "reduced"},
      {"measurement": "effect on cisplatin- or carboplatin-induced caspase activity", "setting": "[2]", "result": "no reduction in caspase enzymatic activity could be detected"},
      {"measurement": "effect on melphalan-induced Caspase-2 activity", "setting": "[2]; melphalan 10 μg/ml, N-acetylcysteine 1000 μg/ml", "result": "reduced"},
      {"measurement": "effect on renal function after radiographic contrast agent", "setting": "[3]", "result": "prevented the expected decline in renal function"},
      {"measurement": "effect on BSO-enhanced taxol cytotoxicity", "setting": "B.5 LX-1 cells [4]", "result": "completely reversed"},
      {"measurement": "mortality and toxicity", "setting": "rat; 1200 mg/kg by aortic infusion 30 minutes prior to chemotherapy, without BSO, 12 animals", "result": "no mortality nor any evidence of toxicity"},
      {"measurement": "bone marrow protection", "setting": "rat; 140–800 mg/kg i.v. immediately after chemotherapy, n=4", "result": "no detectable bone marrow protection"},
      {"measurement": "toxic doses", "setting": "rat; dose escalation, n=3", "result": "above 1200 mg/kg"},
      {"measurement": "mortality by route of administration", "setting": "rat; i.v. versus aortic infusion, Kaplan-Meier, P=0.0014", "result": "i.v. administration significantly more toxic than aortic infusion"},
      {"measurement": "toxicity", "setting": "rat; rat, in vivo, 1200 mg/kg", "result": "no toxicity"},
      {"measurement": "reduction of the cytotoxicity of each alkylator", "setting": "LX-1 SCLC cells", "result": "75–90%"},
      {"measurement": "relative effectiveness among the thiol agents tested", "setting": "LX-1 SCLC cells; on a μg/ml basis", "result": "most effective"},
      {"measurement": "EC50", "setting": "LX-1 SCLC cells; read-out: Chemoprotective agent EC50, protection against carboplatin 200 μg/ml (about 90% lethal dose)", "result": "200 ± 15", "unit": "µg/mL"},
      {"measurement": "EC50", "setting": "LX-1 SCLC cells; read-out: Chemoprotective agent EC50, protection against cisplatin 15 μg/ml (about 90% lethal dose)", "result": "151 ± 15", "unit": "µg/mL"},
      {"measurement": "EC50", "setting": "LX-1 SCLC cells; read-out: Chemoprotective agent EC50, protection against melphalan 20 μg/ml (about 90% lethal dose)", "result": "74 ± 18", "unit": "µg/mL"}
    ]}
  ]
}
